Test systems include CAKI-1 renal; M14 melanoma; NCI-H23 lung; OVCAR-5 ovarian; SK-MEL-5 melanoma; SN12C renal; SNB-75 CNS; SW-620 colon; UACC-257 melanoma; UACC-62 melanoma.
Test in all cases: NCI anticancer screen, dose series, 48 h

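Step 1: Grow cells in 96-well plates. Step 2: Expose to compound for 48 hours at 5 concentrations. Step 3: Interpolate endpoints linearly; if unreached, use highest concentration. Abbreviation: GI50, concentration required for 50% inhibition of growth. TGI: total growth inhibition.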

For the compound `C[C@]12CC[C@@H]3c4ccc(O)cc4C(O)C[C@H]3[C@@H]1CCC2=O` (stereo not given in full), the GI50 in the test on CAKI-1 renal, with M14 melanoma, in the test on NCI-H23 lung, in the test on OVCAR-5 ovarian, with SK-MEL-5 melanoma and in the test with SN12C renal was greater than 100 µM in each case. The GI50 is 26.9 µM with SNB-75 CNS, greater than 100 µM in the test with SW-620 colon, greater than 100 µM in the test with UACC-257 melanoma and greater than 100 µM in the test on UACC-62 melanoma. In addition, the TGI in the test on CAKI-1 renal, in the test with M14 melanoma, with NCI-H23 lung, in the test with OVCAR-5 ovarian, with SK-MEL-5 melanoma and with SN12C renal was greater than 100 µM each time. Further, the TGI in the test on SNB-75 CNS, with SW-620 colon, in the test with UACC-257 melanoma and in the test with UACC-62 melanoma was greater than 100 µM in each case.

Consider `O=C(O)CSc1ncccc1[N+](=O)[O-]`, for which the TGI in the test on CAKI-1 renal, with M14 melanoma, in the test with NCI-H23 lung, with OVCAR-5 ovarian, with SK-MEL-5 melanoma and in the test on SN12C renal was greater than 100 µM throughout. Further, the TGI in the test on SNB-75 CNS, with SW-620 colon, in the test with UACC-257 melanoma and with UACC-62 melanoma was greater than 100 µM in each case.

Take `C=C=C(C(=O)OC)S(=O)c1ccc([N+](=O)[O-])cc1[N+](=O)[O-]` (stereo not given): the TGI in the test on CAKI-1 renal was 63.1 µM; in the test on M14 melanoma it was greater than 69.5 µM; in the test with NCI-H23 lung, greater than 87.3 µM; with OVCAR-5 ovarian it was greater than 100 µM; in the test on SK-MEL-5 melanoma, greater than 100 µM; in the test with SN12C renal, 49 µM. In addition, the TGI in the test on SNB-75 CNS is greater than 69.7 µM; in the test on SW-620 colon, 36.3 µM; in the test with UACC-257 melanoma, greater than 79.9 µM; with UACC-62 melanoma, greater than 71.4 µM.

As for `CCCCCCN(CCCCCC)CC(O)c1ccc2c3c(cccc13)CC2` (stereo not given), the GI50 in the test with CAKI-1 renal is 1.96 µM; with M14 melanoma it was 3.95 µM; in the test with NCI-H23 lung it was 3.7 µM; with OVCAR-5 ovarian, 10.8 µM; in the test on SK-MEL-5 melanoma it was 4.74 µM; in the test with SN12C renal it was 7.04 µM. Further, the GI50 with SNB-75 CNS was 13.6 µM; in the test on SW-620 colon it was 3.17 µM; in the test with UACC-257 melanoma, 6.97 µM; with UACC-62 melanoma, 4.4 µM. In addition, the TGI in the test on CAKI-1 renal was found to be 9.35 µM; with M14 melanoma, 17 µM; with NCI-H23 lung it was 18.1 µM; in the test on OVCAR-5 ovarian, 23.9 µM; with SK-MEL-5 melanoma it was 17.9 µM; with SN12C renal it was 22 µM. The TGI in the test on SNB-75 CNS worked out at 27.1 µM; in the test on SW-620 colon it was 14.9 µM; with UACC-257 melanoma, 22.6 µM; with UACC-62 melanoma it was 17.5 µM.

Take `Cc1cc(=O)oc2cc(O)c(CN(C)CC(=O)O)cc12`: the TGI in the test on CAKI-1 renal, in the test on M14 melanoma, in the test on NCI-H23 lung, in the test on OVCAR-5 ovarian, with SK-MEL-5 melanoma and in the test with SN12C renal was greater than 100 µM each time. Further, the TGI with SNB-75 CNS, in the test with SW-620 colon, in the test with UACC-257 melanoma and in the test with UACC-62 melanoma was greater than 100 µM in each case.

`COc1cc(S(C)(=O)=O)ccc1Nc1nc2ccc(-c3ccc(NC(=O)[C@H](C)c4ccc(F)cc4)cc3)cn2n1`: the GI50 in the test on CAKI-1 renal was greater than 100 µM; with M14 melanoma, 33.2 µM; with NCI-H23 lung, greater than 100 µM; with OVCAR-5 ovarian, greater than 100 µM; in the test with SK-MEL-5 melanoma it was 0.4 µM; in the test with SN12C renal, greater than 100 µM. In addition, the GI50 with SNB-75 CNS was 47.1 µM; in the test with SW-620 colon, 17.1 µM; with UACC-257 melanoma, greater than 100 µM; with UACC-62 melanoma, 75.6 µM. Further, the TGI in the test on CAKI-1 renal, in the test on M14 melanoma, in the test with NCI-H23 lung, in the test with OVCAR-5 ovarian, in the test with SK-MEL-5 melanoma and in the test with SN12C renal was greater than 100 µM each time. Further, the TGI in the test with SNB-75 CNS, with SW-620 colon, in the test on UACC-257 melanoma and in the test with UACC-62 melanoma was greater than 100 µM throughout.

As to `Nc1nc(CCC(=O)Nc2cccc(C(F)(F)F)c2)cc(-c2ccc3ccccc3c2)n1`, the TGI in the test on CAKI-1 renal, in the test on M14 melanoma, with NCI-H23 lung, in the test on OVCAR-5 ovarian, with SK-MEL-5 melanoma and with SN12C renal was greater than 100 µM in each case. The TGI in the test on SNB-75 CNS, in the test with SW-620 colon, in the test with UACC-257 melanoma and in the test with UACC-62 melanoma was greater than 100 µM each time.

Turning to `CC1CCN(CC(=O)N2c3ccccc3Sc3cc4ccccc4cc32)CC1`, the TGI with CAKI-1 renal, with M14 melanoma, in the test with NCI-H23 lung, in the test on OVCAR-5 ovarian, in the test on SK-MEL-5 melanoma and in the test on SN12C renal was greater than 100 µM in each case. Besides, the TGI in the test on SNB-75 CNS, in the test with SW-620 colon, in the test on UACC-257 melanoma and in the test with UACC-62 melanoma was greater than 100 µM throughout.

As to `C/C(=N\NC(N)=S)c1nc2ccc(Cl)cc2[nH]1`, the GI50 in the test on CAKI-1 renal was 0.287 µM; with M14 melanoma it was 1.8 µM; with NCI-H23 lung, 5.51 µM; in the test on OVCAR-5 ovarian, 5.71 µM; in the test with SK-MEL-5 melanoma it was 2.7 µM; with SN12C renal it was 4.72 µM. Besides, the GI50 with SNB-75 CNS is 2.29 µM; in the test on SW-620 colon, 2.96 µM; with UACC-257 melanoma it was 5.05 µM; in the test on UACC-62 melanoma it was 2.2 µM. Further, the TGI in the test on CAKI-1 renal is 1.74 µM; in the test with M14 melanoma it was 28.5 µM; with NCI-H23 lung, 13.7 µM; in the test on OVCAR-5 ovarian it was 18.1 µM; with SK-MEL-5 melanoma, 22.4 µM; in the test on SN12C renal, greater than 50 µM. The TGI in the test on SNB-75 CNS is 15.6 µM; in the test on SW-620 colon it was greater than 50 µM; with UACC-257 melanoma it was greater than 50 µM; with UACC-62 melanoma it was 33.8 µM.

For `COC(=O)c1nc(N)[nH]c(=O)c1CCCCCc1c(C(=O)OC)nc(N)[nH]c1=O`, the TGI in the test on CAKI-1 renal, in the test with M14 melanoma, in the test on NCI-H23 lung, in the test on OVCAR-5 ovarian, with SK-MEL-5 melanoma and in the test with SN12C renal was greater than 50 µM throughout. The TGI in the test on SNB-75 CNS, in the test on SW-620 colon, with UACC-257 melanoma and in the test with UACC-62 melanoma was greater than 50 µM in each case.

Turning to `O=C1Nc2cccc3cc(NCC(O)CCl)cc1c23` (stereo not given), the TGI with CAKI-1 renal, in the test on M14 melanoma, in the test with NCI-H23 lung, in the test with OVCAR-5 ovarian, in the test with SK-MEL-5 melanoma and in the test on SN12C renal was greater than 100 µM each time. The TGI with SNB-75 CNS, with SW-620 colon, in the test with UACC-257 melanoma and in the test on UACC-62 melanoma was greater than 100 µM each time.

On to `COC(=O)c1c(-c2ccccc2)sc(-c2cccc3ccccc23)c1C(=O)OC`, for which the TGI with CAKI-1 renal, in the test on M14 melanoma, in the test with NCI-H23 lung, with OVCAR-5 ovarian, in the test with SK-MEL-5 melanoma and in the test with SN12C renal was greater than 100 µM throughout. In addition, the TGI with SNB-75 CNS, with SW-620 colon, in the test with UACC-257 melanoma and in the test on UACC-62 melanoma was greater than 100 µM in each case.

For the compound `O=[N+]([O-])c1ccc2c(c1)[O][Sn][O]2`, the GI50 was 104 µg/mL with CAKI-1 renal; 23.8 µg/mL in the test with M14 melanoma; 15.3 µg/mL in the test with NCI-H23 lung; greater than 150 µg/mL in the test with OVCAR-5 ovarian; 75.8 µg/mL with SK-MEL-5 melanoma; greater than 150 µg/mL in the test with SN12C renal. Besides, the GI50 is greater than 150 µg/mL in the test with SNB-75 CNS, 114 µg/mL in the test with SW-620 colon, 40.5 µg/mL with UACC-257 melanoma and 8.32 µg/mL in the test on UACC-62 melanoma. In addition, the TGI in the test with CAKI-1 renal is greater than 150 µg/mL; with M14 melanoma, 78.2 µg/mL; with NCI-H23 lung, 143 µg/mL; in the test with OVCAR-5 ovarian it was greater than 150 µg/mL; with SK-MEL-5 melanoma, greater than 150 µg/mL; in the test on SN12C renal, greater than 150 µg/mL. Also, the TGI in the test on SNB-75 CNS, in the test with SW-620 colon, in the test on UACC-257 melanoma and with UACC-62 melanoma was greater than 150 µg/mL each time.

Take `COC(=O)C1=C(C(=O)OC)SC(=C(Cl)C(=S)Sc2ccccc2N)S1`: the GI50 with CAKI-1 renal is 41.6 µM; with M14 melanoma, 7.35 µM; in the test on NCI-H23 lung it was 10.1 µM; in the test with OVCAR-5 ovarian it was 19.3 µM; with SK-MEL-5 melanoma, 19.9 µM; in the test with SN12C renal it was 20.5 µM. The GI50 is 32.8 µM with SNB-75 CNS, 55.4 µM with SW-620 colon, 20.3 µM with UACC-257 melanoma and 19.9 µM in the test with UACC-62 melanoma. Further, the TGI in the test on CAKI-1 renal was greater than 100 µM; with M14 melanoma, 30.3 µM; in the test with NCI-H23 lung it was 25.9 µM; in the test with OVCAR-5 ovarian, 41.5 µM; in the test on SK-MEL-5 melanoma, 49.2 µM; in the test with SN12C renal, 59.4 µM. Also, the TGI with SNB-75 CNS is greater than 100 µM; in the test with SW-620 colon, greater than 100 µM; in the test on UACC-257 melanoma it was 55.7 µM; in the test on UACC-62 melanoma, 78.4 µM.

(Values after PubChem BioAssay (NCI).)
